Reference: ChEMBL document CHEMBL4052813, “Achyrodimer F, a tyrosyl-DNA phosphodiesterase I inhibitor from an Australian fungus of the family Cortinariaceae” (Bioorg Med Chem Lett, 2017)

Tests used:
[1] = target: T1, Tyrosyl-DNA phosphodiesterase 1 (Homo sapiens, UniProt Q9NUW8); assay: Inhibition of Tdp1 (unknown origin) up to 40 uM using 5'-(6-TAMN-AGGATCTAAAAGACTT-BHQ-)3' as substrate pretreated for 30 mins followed by substrate addition by fluorescence assay
[2] = target: T1, Tyrosyl-DNA phosphodiesterase 1; assay: Inhibition of Tdp1 (unknown origin) using 5'-(6-TAMN-AGGATCTAAAAGACTT-BHQ-)3' as substrate pretreated for 30 mins followed by substrate addition by fluorescence assay

T1 sequence (Q9NUW8 whole entry): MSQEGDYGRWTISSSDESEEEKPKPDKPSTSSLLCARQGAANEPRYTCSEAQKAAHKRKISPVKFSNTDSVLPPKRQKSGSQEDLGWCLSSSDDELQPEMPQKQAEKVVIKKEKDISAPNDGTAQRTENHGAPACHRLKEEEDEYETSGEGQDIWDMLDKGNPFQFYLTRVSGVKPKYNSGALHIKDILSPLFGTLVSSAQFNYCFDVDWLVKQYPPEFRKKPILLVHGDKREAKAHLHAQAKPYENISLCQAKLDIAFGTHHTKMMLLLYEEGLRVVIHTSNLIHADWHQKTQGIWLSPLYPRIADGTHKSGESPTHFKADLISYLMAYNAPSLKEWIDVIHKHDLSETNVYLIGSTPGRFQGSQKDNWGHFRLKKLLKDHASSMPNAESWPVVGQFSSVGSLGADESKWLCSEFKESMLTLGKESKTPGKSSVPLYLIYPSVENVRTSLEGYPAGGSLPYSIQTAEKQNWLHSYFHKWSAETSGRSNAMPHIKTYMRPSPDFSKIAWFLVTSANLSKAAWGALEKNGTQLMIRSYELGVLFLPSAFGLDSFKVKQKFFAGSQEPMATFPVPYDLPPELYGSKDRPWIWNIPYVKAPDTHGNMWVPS

Row | inhibition [1] | IC50 [2] [nM] | SMILES
1 | Dose-dependent effect |  | O=c1cc(O)cc(/C=C/c2ccc(O)c(O)c2)o1
2 | Dose-dependent effect |  | O=c1cc(O)cc(/C=C/c2ccc(O)cc2)o1
3 |  | 1000 | O=c1cc(O)cc([C@H]2[C@H](c3ccc(O)cc3)[C@H](c3cc(O)cc(=O)o3)[C@H]2c2ccc(O)cc2)o1
